Reference: PubChem BioAssay (NCI)
Where “and” joins values, the source holds several entries; their conditions need not be identical. Equal entries are not always repeated.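 Interpolation was linear, between the two tested concentrations surrounding the appropriate level; five concentrations were tested over 48 hours in 96-well plates. GI50 = concentration required for 50% inhibition of growth. At the TGI there is no net growth.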

Key:
Assay in all cases: NCI anticancer screen, dose series, 48 h
A498 renal = test system: A498 renal
COLO 205 colon = test system: COLO 205 colon
K-562 leukemia = test system: K-562 leukemia
KM20L2 colon = test system: KM20L2 colon
OVCAR-8 ovarian = test system: OVCAR-8 ovarian
RPMI-8226 leukemia = test system: RPMI-8226 leukemia
UACC-257 melanoma = test system: UACC-257 melanoma
MDA-MB-435 = test system: MDA-MB-435
NCI/ADR-RES ovarian = test system: NCI/ADR-RES ovarian
SNB-78 CNS = test system: SNB-78 CNS
DMS 114 small cell lung = test system: DMS 114 small cell lung

SMILES	GI50 (A498 renal)	TGI (A498 renal)	GI50 (COLO 205 colon)	TGI (COLO 205 colon)	GI50 (K-562 leukemia)	TGI (K-562 leukemia)	GI50 (KM20L2 colon)	TGI (KM20L2 colon)	GI50 (OVCAR-8 ovarian)	TGI (OVCAR-8 ovarian)	GI50 (RPMI-8226 leukemia)	TGI (RPMI-8226 leukemia)	GI50 (UACC-257 melanoma)	TGI (UACC-257 melanoma)	TGI (MDA-MB-435)	TGI (NCI/ADR-RES ovarian)	TGI (SNB-78 CNS)	TGI (DMS 114 small cell lung)	GI50 (MDA-MB-435)	GI50 (NCI/ADR-RES ovarian)
CC(=O)[CH-]C(=O)c1ccccc1.CC(=O)[CH-]C(=O)c1ccccc1.Cl.[O-]c1ccnc2ccccc12.[O-]c1ccnc2ccccc12.[Ti+4]	> 100 µM	> 100 µM	> 100 µM	> 100 µM	> 100 µM	> 100 µM	> 100 µM	> 100 µM	> 100 µM	> 100 µM	> 100 µM	> 100 µM	> 100 µM	> 100 µM	–	–	–	–	–	–
COc1cccc2c1C(=O)c1c(O)c3c(c(O)c1C2=O)C[C@@](O)(C(=O)CO)CC3OC1CC(N)C(OC2CCCCO2)C(C)O1 (some centres undefined)	–	1.16 µM	0.02 µM	–	0.0247 µM	6.58 µM	–	4.98 µM	0.018 µM	–	0.00394 µM	–	0.129 µM	0.455 µM and 3.42 µM	0.229 µM	4.06 µM	26.5 µM	–	–	–
Cc1ccc(S(=O)(=O)OCOS(=O)(=O)c2ccc(C)cc2)cc1	–	–	–	> 100 µM	–	> 100 µM	–	> 100 µM	–	> 100 µM	–	> 100 µM	–	> 100 µM	–	–	–	> 100 µM	–	–
CCC12C=CCN(CCc3c([nH]c4ccccc34)/C=C\1)C2 (centres undefined)	–	> 100 µM	–	> 100 µM	–	> 100 µM	–	> 100 µM	–	–	–	> 100 µM	–	> 100 µM	–	–	–	> 100 µM	–	–
COC(=O)c1c[nH]c2cc(OC(C)C)c(OC(C)C)cc2c1=O	> 100 µM	> 100 µM	> 100 µM	> 100 µM	> 100 µM	> 100 µM	–	–	> 100 µM	> 100 µM	> 100 µM	> 100 µM	> 100 µM	> 100 µM	> 100 µM	> 100 µM	–	–	> 100 µM	> 100 µM
COC(=O)[C@H](Cc1cn(C)cn1)NC(=O)[C@H](CC(=O)OCc1ccccc1)NC(=O)Nc1cc(C(F)(F)F)cc(C(F)(F)F)c1	12.8 µM	25.4 µM	3.79 µM	13.8 µM	4.15 µM	15.7 µM	–	–	4.49 µM	16.9 µM	4.24 µM	17.5 µM	6.34 µM	19.1 µM	18.8 µM	35.6 µM	–	–	5.9 µM	17.3 µM
Cc1cc(O)ccc1C1=NN(c2ccc(S(N)(=O)=O)cc2)C(=O)CC1	9.08 µM and 77.2 µM	50 µM and > 100 µM	8.8 µM and 36.6 µM	50 µM and > 100 µM	3 µM and 2.68 µM	50 µM and > 100 µM	–	–	15.4 µM and 46.2 µM	50 µM and > 100 µM	2.35 µM and 2.76 µM	50 µM and 23.6 µM	31.3 µM and > 100 µM	50 µM and > 100 µM	4.35 µM and 5.48 µM	50 µM and 30 µM	–	–	0.994 µM and 1.73 µM	2.36 µM and 3.9 µM
C=C1C(=O)O[C@H]2[C@H]1CC/C(COC(=O)c1cccnc1N)=C\CC[C@@]1(C)O[C@@H]21	2.56 µM	7.27 µM	1.77 µM	3.68 µM	0.396 µM	14.1 µM	–	–	4.2 µM	16.3 µM	0.365 µM	2.54 µM	2.32 µM	12.6 µM	12 µM	39.9 µM	–	–	2.58 µM	4.56 µM
C=CCn1c2ccccc2c2c3c(c4c5ccccc5n(CC=C)c4c21)C(=O)N(O)C3=O	2.55 µM	9.48 µM	2.01 µM	9.31 µM	3.89 µM	50 µM	–	–	4.41 µM	28.3 µM	2.51 µM	10.6 µM	13.5 µM	54.6 µM	29.6 µM	21.9 µM	–	–	4.45 µM	3.43 µM
C=C1c2nc3ccccc3n2C=C(c2cccc(Cl)c2)N1Cc1ccc(OC)cc1	9.33 µM	60.4 µM	9.14 µM	35.7 µM	0.29 µM	5.25 µM	–	–	2.43 µM	> 57.3 µM	0.361 µM	5.75 µM	5.64 µM	> 100 µM	–	5.49 µM	–	–	0.158 µM	0.441 µM
Cc1ccc(N(C=O)c2c([N+](=O)[O-])cc([N+](=O)[O-])c3c2=[N+]([O-])CN=3)cc1	–	> 100 µM	–	68.1 µM	–	82.7 µM	–	–	–	> 100 µM	–	69.2 µM	–	58 µM	> 100 µM	92.2 µM	–	–	–	–
COc1cc(OCc2ccccc2)c2c(CCC(=O)O)cc(=O)oc2c1 (tested in a mixture with another compound)	–	80.6 µM	–	> 100 µM	–	> 100 µM	–	–	–	> 100 µM	–	> 100 µM	–	> 100 µM	> 100 µM	> 100 µM	–	–	–	–
COc1ccc(OC)c(Nc2nc3nonc3nc2Nc2cccc(Br)c2)c1	0.461 µM	4.11 µM	0.853 µM	2.73 µM	0.556 µM	17.5 µM	–	–	1.02 µM	> 100 µM	0.309 µM	3.05 µM	0.508 µM	7.37 µM	> 100 µM	13.9 µM	–	–	0.538 µM	0.541 µM
O=C1C=C(NCCO)c2nccc3c2c1nc1ccccc13	38.2 µM	> 100 µM	14.8 µM	> 100 µM	31.5 µM	> 100 µM	–	–	40 µM	> 100 µM	24.7 µM	> 100 µM	32.2 µM	> 100 µM	> 100 µM	> 100 µM	–	–	29.3 µM	32 µM
CC(C)(C)[Si](C)(C)OCC1OC(n2cnc3c(=O)[nH]cnc32)CC1O (centres undefined)	–	> 100 µM	–	> 100 µM	–	> 100 µM	–	–	–	> 100 µM	–	> 100 µM	–	> 100 µM	> 100 µM	> 100 µM	–	–	–	–
CC[C@@H](C)/C=C(C)/C=C/C(=O)c1c(O)c(-c2ccc(OC(=O)[C@@]34CC[C@@](C)(C(=O)O3)C4(C)C)cc2)cn(O)c1=O	5.6 µM	> 50 µM	15.2 µM	> 50 µM	1.57 µM	> 50 µM	–	–	1.76 µM	> 50 µM	2.49 µM	> 50 µM	1.8 µM	36 µM	> 50 µM	10 µM	–	–	2.46 µM	1.46 µM
CN(C)NC(=O)/C(=C/c1ccc(Cl)cc1)NC(=O)c1ccccc1	–	> 100 µM	–	> 100 µM	–	> 100 µM	–	> 100 µM	–	> 100 µM	–	> 100 µM	–	> 100 µM	–	–	–	–	–	–
Cc1ccc(/C=N/NC(=O)c2ccccc2Oc2ccccc2)o1	> 58.5 µM	> 100 µM	61.3 µM	> 100 µM	33.8 µM	> 100 µM	–	–	39 µM	> 100 µM	23.8 µM	> 88.4 µM	36.5 µM	> 100 µM	> 100 µM	> 100 µM	–	–	34.6 µM	25.9 µM
Cn1ncc(C#N)c1-c1ccc2c(c1)CN([C@H](CN)Cc1cccc(F)c1)C2=O	0.157 µM	1.39 µM	1.85 µM	21 µM	27.4 µM	> 100 µM	–	–	47.7 µM	> 100 µM	2.34 µM	18.3 µM	5.99 µM	66.6 µM	> 67.7 µM	> 100 µM	–	–	7.56 µM	> 100 µM
Cc1ccc(C[As+](c2ccccc2)(c2ccccc2)c2ccccc2)cc1	0.581 µM	5.07 µM	0.412 µM	2.45 µM	0.466 µM	21.9 µM	–	–	0.599 µM	15.3 µM	0.218 µM	3.24 µM	0.279 µM	1.75 µM	6.34 µM	> 100 µM	–	–	0.552 µM	49.1 µM
CC1OC(n2cc(C(F)(F)F)c(=O)[nH]c2=O)C=CC1=O (centres undefined)	–	–	–	35.2 µM	–	> 100 µM	–	48.1 µM	–	80 µM	–	37.4 µM	–	38.8 µM	–	–	31.5 µM	–	–	–
O=C(O)CCC(c1ccccc1)(c1ccccc1)c1ccccc1	–	> 100 µM	–	97.6 µM	–	> 100 µM	–	–	–	> 100 µM	–	> 94.3 µM	–	> 100 µM	> 100 µM	> 100 µM	–	–	–	–
c1ccc(-c2[nH]ncc2-c2ccnc(-c3ccc(OCCN4CCOCC4)cc3)c2)nc1	> 25 µM	> 25 µM	> 25 µM	> 25 µM	13.2 µM	> 25 µM	–	–	> 25 µM	> 25 µM	> 25 µM	> 25 µM	> 25 µM	> 25 µM	> 25 µM	> 25 µM	–	–	> 25 µM	> 25 µM
COc1ccc(Cn2cc(COc3cc(/C=C/C(=O)c4cc(OC)c(OC)c(OC)c4)ccc3OC)nn2)cc1	12.8 µM	> 100 µM	4.36 µM	> 100 µM	3.13 µM	> 100 µM	–	–	3.06 µM	> 100 µM	2.58 µM	29.6 µM	10.3 µM	> 100 µM	> 100 µM	> 100 µM	–	–	2.86 µM	3.49 µM
NS(=O)(=O)c1ccc(N=Nc2ccc[nH]c2=O)cc1	–	> 100 µM	–	> 100 µM	–	> 100 µM	–	–	–	> 100 µM	–	> 100 µM	–	> 100 µM	> 100 µM	> 100 µM	–	–	–	–
O=c1nc2sc3ccccc3c(=O)n2[nH]1	–	–	–	> 100 µM	–	> 100 µM	–	> 100 µM	–	> 100 µM	–	> 100 µM	–	> 100 µM	–	–	> 100 µM	–	–	–
